Laboratory results from patent US11866430B2, “Naphthyridinone compounds useful as T cell activators” (priority 2018, dated 2024).
pIC50: −log10 of the molar value. Like-named read-outs stand apart in the source and are kept apart here.

Columns and labels:
[1] = tested on: pre-activated CD4 T cells and Raji cells; experiment: Raji CD4 T Cell IL2 Assay; assay type: cell-based
[2] = target: T1, human DGKζ (Homo sapiens (Human), UniProt Q13574); experiment: DGKζ LIPGLO assay (extruded liposome substrate); assay type: biochemical
Experimental: (§1) The DGKα and DGKζ reactions were performed using either extruded liposome (DGKα and DGKζ LIPGLO assays) or detergent/lipid micelle substrate (DGKα and DGKζ assays). The reactions were carried out in 50 mM MOPS pH 7.5, 100 mM NaCl, 10 mM MgCl2, 1 μM CaCl2, and 1 mM DTT (assay buffer). The reactions using a detergent/lipid micelle substrate also contained 50 mM octyl B-D-glucopyranoside.
(§2) A 5 mL enzyme/substrate solution at 2× final reaction concentration was prepared by combining 2.5 mL 4× enzyme solution (20 nM DGKα or DGKζ (prepared as described below) in assay buffer) and 2.5 mL of either 4× liposome or 4× detergent/lipid micelle solution (compositions described below) and incubated at room temperature for 10 minutes. Next, 1 μL 2× enzyme/substrate solution was added to wells containing the test compound and reactions were initiated with the addition of 1 μL 300 uM ATP. The reactions were allowed to proceed for 1 hr, after which 2 μL Glo Reagent (Promega V9101) was added and incubated for 40 minutes. Next, 4 μL Kinase Detection Reagent was added and incubated for 30 minutes. Luminescence was recorded using an EnVision microplate reader. […] The compounds were evaluated at 11 concentrations to determine IC50.
(§3) The PC, DAG, and PS were dissolved in chloroform, combined, and dried in vacuo to a thin film. The lipids were hydrated to 20 mM in 50 mM MOPS pH 7.5, 100 mM NaCl, 5 mM MgCl2, and were freeze-thawed five times. The lipid suspension was extruded through a 100 nm polycarbonate filter eleven times. […] The liposome preparation was stored at 4° C. for as long as four weeks.
Baculovirus amplification was achieved using infected Sf9 cells at 1:1500 virus/cell ratios, and grown for 65 hours at 27° C. post-transfection.
(§4) The expression scale up for each protein was carried out in the Cellbag 50 L WAVE-Bioreactor System 20/50 from GE Healthcare Bioscience. 12 L of 2×10^6 cells/mL Sf9 cells (Expression System, Davis, Calif.) grown in ESF921 insect medium (Expression System) were infected with virus stock at 1:200 virus/cell ratios, and grown for 66-68 hours at 27° C. post-infection. The infected cell culture was harvested by centrifugation at 2000 rpm for 20 min 4° C. in a SORVALL® RC12BP centrifuge. The cell pellets were stored at −70° C. until purification.
The cells were lysed using nitrogen cavitation method with a nitrogen bomb (Parr Instruments), and the lysates were clarified by centrifugation. […] The three steps column chromatography included nickel affinity resin capture (i.e. HisTrap FF crude, GE Healthcare), followed by size exclusion chromatography (i.e. HiLoad 26/600 Superdex 200 prep grade, GE Healthcare for DGK-alpha, and HiPrep 26/600 Sephacryl S 300_HR, GE Healthcare for DGK-zeta). The third step was ion exchange chromatography, and differed for the two isoforms. DGKα was polished using Q-Sepharose anion exchange chromatography (GE Healthcare). DGKζ was polished using SP Sepharose cation exchange chromatography (GE Healthcare). The proteins were delivered at concentrations of ≥2 mg/mL. The formulation buffers were identical for both proteins: 50 mM Hepes, pH 7.2, 500 mM NaCl, 10% v/v glycerol, 1 mM TCEP, and 0.5 mM EDTA.

[3] = target: T2, human DGKα (Homo sapiens (Human), UniProt P23743); experiment: DGKα LIPGLO assay (extruded liposome substrate); assay type: biochemical
Experimental: as §1, with “B-D-glucopyranoside. […] The lipid substrate concentrations were […], 0.25 mM DAG, and 2.75 mM PC for the extruded liposome reactions.” for “B-D-glucopyranoside.”
as §2, with “The compound inhibition studies were carried out as follows: 50 nL droplets of each test compound (top concentration 10 mM with 11 point, 3-fold dilution series for each compound) solubilized in DMSO were transferred to wells of a white 1536 well plate (Corning 3725). A 5” for “A 5”
as §3
Human DGK-alpha-TVMV-His-pFBgate and human DCK-zeta-transcript variant-2-TVMV-His-pFBgate baculovirus samples were generated using the Bac-to-Bac baculovirus expression system (Invitrogen) according to the manufacturer's protocol. The DNA used for expression of DGK-alpha and DGK-zeta have SEQ ID NOs: 1 and 3, respectively. Baculovirus amplification was achieved using infected Sf9 cells at 1:1500 virus/cell ratios, and grown for 65 hours at 27° C. post-transfection.
as §4
Full length human DGKα and DGKζ, each expressed containing a TVMV-cleavable C-terminal Hexa-His tag sequence (SEQ ID NOs: 2 and 4, respectively) and produced as described above, were purified from Sf) baculovirus-infected insect cell paste. The cells were lysed using nitrogen cavitation method with a nitrogen bomb (Parr Instruments), and the lysates were clarified by centrifugation. […] The three steps column chromatography included nickel affinity resin capture (i.e. HisTrap FF crude, GE Healthcare), followed by size exclusion chromatography (i.e. HiLoad 26/600 Superdex 200 prep grade, GE Healthcare for DGK-alpha, and HiPrep 26/600 Sephacryl S 300_HR, GE Healthcare for DGK-zeta). The third step was ion exchange chromatography, and differed for the two isoforms.

[4] = target: T1, human DGKζ; experiment: DGKζ assay (detergent/lipid micelle substrate); assay type: biochemical
Summary of the method: (§5)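 Full-length human DGKα or DGKζ (C-terminal His tag, Sf9-expressed; 20 nM 4× stock) was preincubated 10 min at room temperature with PS/DAG octyl glucoside micelles in MOPS pH 7.5 buffer with MgCl2, CaCl2 and DTT. It was then started with ATP (300 uM addition) and run for 1 hr, with ADP-Glo luminescence read-out.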

[5] = target: T2, human DGKα; experiment: biochemical
Summary of the method: as §5

[6] = extruded liposome substrate, read-out: DGKζ LIPGLO IC50
[7] = detergent/lipid micelle substrate, read-out: DGKζ IC50
[8] = detergent/lipid micelle substrate, read-out: DGKα IC50
[9] = DGKζ LIPGLO IC50, extruded liposome substrate
[10] = DGKζ IC50, detergent/lipid micelle substrate

T1 sequence (Q13574 other isoform, or with tags, fused parts or gaps): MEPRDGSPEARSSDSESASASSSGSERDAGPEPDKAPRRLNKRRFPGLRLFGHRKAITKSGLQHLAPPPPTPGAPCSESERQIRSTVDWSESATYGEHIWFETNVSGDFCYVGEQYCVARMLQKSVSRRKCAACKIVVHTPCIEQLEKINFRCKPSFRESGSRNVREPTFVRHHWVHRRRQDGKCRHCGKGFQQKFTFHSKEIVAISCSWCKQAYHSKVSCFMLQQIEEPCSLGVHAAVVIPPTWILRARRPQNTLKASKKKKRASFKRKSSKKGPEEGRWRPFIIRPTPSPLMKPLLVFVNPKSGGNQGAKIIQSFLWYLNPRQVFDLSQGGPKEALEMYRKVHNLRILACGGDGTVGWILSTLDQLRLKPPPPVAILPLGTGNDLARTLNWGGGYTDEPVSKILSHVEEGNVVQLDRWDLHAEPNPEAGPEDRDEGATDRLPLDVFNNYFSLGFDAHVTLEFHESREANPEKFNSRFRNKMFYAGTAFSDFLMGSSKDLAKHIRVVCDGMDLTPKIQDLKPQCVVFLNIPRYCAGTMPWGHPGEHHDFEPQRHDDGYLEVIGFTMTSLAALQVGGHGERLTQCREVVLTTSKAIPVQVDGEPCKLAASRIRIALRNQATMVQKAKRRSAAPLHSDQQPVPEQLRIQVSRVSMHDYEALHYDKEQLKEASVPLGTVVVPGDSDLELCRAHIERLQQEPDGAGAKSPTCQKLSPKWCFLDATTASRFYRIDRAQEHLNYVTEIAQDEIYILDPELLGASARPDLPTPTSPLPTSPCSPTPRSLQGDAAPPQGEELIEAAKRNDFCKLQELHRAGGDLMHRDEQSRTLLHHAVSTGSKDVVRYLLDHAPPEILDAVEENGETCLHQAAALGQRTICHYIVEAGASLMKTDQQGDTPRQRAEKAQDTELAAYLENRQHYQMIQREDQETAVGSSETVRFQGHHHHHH
T2 sequence (P23743 other isoform, or with tags, fused parts or gaps): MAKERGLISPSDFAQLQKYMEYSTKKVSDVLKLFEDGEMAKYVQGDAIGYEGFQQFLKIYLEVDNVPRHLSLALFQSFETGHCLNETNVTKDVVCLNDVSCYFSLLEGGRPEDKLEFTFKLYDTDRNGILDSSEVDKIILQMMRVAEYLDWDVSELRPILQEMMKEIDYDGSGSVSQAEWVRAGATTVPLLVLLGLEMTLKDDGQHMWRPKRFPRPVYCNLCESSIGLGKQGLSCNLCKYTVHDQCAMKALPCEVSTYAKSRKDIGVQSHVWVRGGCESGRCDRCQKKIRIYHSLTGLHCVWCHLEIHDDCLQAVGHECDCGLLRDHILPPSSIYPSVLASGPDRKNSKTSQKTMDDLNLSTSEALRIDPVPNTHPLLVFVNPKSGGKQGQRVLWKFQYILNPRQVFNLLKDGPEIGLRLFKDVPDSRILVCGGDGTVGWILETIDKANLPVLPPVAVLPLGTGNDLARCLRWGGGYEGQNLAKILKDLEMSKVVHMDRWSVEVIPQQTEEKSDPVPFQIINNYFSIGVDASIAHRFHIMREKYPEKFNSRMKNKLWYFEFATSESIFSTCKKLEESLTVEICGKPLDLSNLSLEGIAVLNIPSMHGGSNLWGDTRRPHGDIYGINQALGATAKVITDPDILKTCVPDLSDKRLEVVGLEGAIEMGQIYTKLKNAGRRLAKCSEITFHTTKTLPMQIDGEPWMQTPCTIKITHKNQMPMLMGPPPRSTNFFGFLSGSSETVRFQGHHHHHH

SMILES | pIC50 [1] | pIC50 [2, 6] | pIC50 [3] | pIC50 [4, 7] | pIC50 [5, 8] | pIC50 ([1]; Homo sapiens, Raji) | pIC50 [2, 9] | pIC50 [4, 10] | pIC50 ([5]; DGKα IC50, detergent/lipid micelle substrate)
CCC(c1ccc(F)cc1)N1CCN(c2c(C#N)c(=O)n(C)c3ccc(Br)nc23)CC1 (single isomer, unassigned) [Example 26, 6-bromo-4-{4-[1-(4-fluorophenyl)propyl]piperazin-1-yl}-1-methyl-2-oxo-1,2-dihydro-1,5-naphthyridine-3-carbonitrile] | 6.85 | 4.74 | 5.17 | 4.07 | 5.37 |  |  |  | 
CCC(c1ccc(F)cc1)N1CCN(c2c(C#N)c(=O)n(C)c3ccc(Br)nc23)CC1 (single isomer, unassigned) [Example 27, 6-bromo-4-{4-[1-(4-fluorophenyl)propyl]piperazin-1-yl}-1-methyl-2-oxo-1,2-dihydro-1,5-naphthyridine-3-carbonitrile] | 7.24 | < 3.62 | 6.96 | < 3.62 | 6.96 |  |  |  | 
CCC(c1ccc(F)cc1)N1CCN(c2c([N+](=O)[O-])c(=O)n(C)c3ccc(C#N)nc23)CC1 (single isomer, unassigned) [Example 33, 8-{4-[1-(4-fluorophenyl)propyl]piperazin-1-yl}-5-methyl-7-nitro-6-oxo-5,6-dihydro-1,5-naphthyridine-2-carbonitrile] |  |  | 5.77 |  | 6.12 | 7.74 | 5.77 | 5.12 | 
CCC(c1ccc(F)cc1)N1CCN(c2c([N+](=O)[O-])c(=O)n(C)c3ccc(C#N)nc23)CC1 (single isomer, unassigned) [Example 34, 8-{4-[1-(4-fluorophenyl)propyl]piperazin-1-yl}-5-methyl-7-nitro-6-oxo-5,6-dihydro-1,5-naphthyridine-2-carbonitrile] | 7.46 |  | 6.54 |  | 6.74 |  | 5.47 | 4.64 | 
CC(c1ccc(F)cc1)N1CCN(c2c([N+](=O)[O-])c(=O)n(C)c3ccc(C#N)nc23)CC1 (single isomer, unassigned) [Example 45, 8-(4-(1-(4-fluorophenyl)ethyl)piperazin-1-yl)-5-methyl-7-nitro-6-oxo-5,6-dihydro-1,5-naphthyridine-2-carbonitrile] |  | 5.17 | 6.41 | 4.44 | 7.00 | 7.21 |  |  | 
Cn1c(=O)c([N+](=O)[O-])c(N2CCN(C(c3ccc(F)cc3)C3CC3)CC2)c2nc(C#N)ccc21 (single isomer, unassigned) [Example 50, 8-(4-(cyclopropyl(4-fluorophenyl)methyl)piperazin-1-yl)-5-methyl-7-nitro-6-oxo-5,6-dihydro-1,5-naphthyridine-2-carbonitrile] | 7.41 | 5.24 | 5.68 | 4.41 | 6.00 |  |  |  | 
Cn1c(=O)c([N+](=O)[O-])c(N2CCN(C(c3ccc(F)cc3)C3CC3)CC2)c2nc(C#N)ccc21 (single isomer, unassigned) [Example 51, 8-(4-(cyclopropyl(4-fluorophenyl)methyl)piperazin-1-yl)-5-methyl-7-nitro-6-oxo-5,6-dihydro-1,5-naphthyridine-2-carbonitrile] | 8.28 | 5.33 | 6.48 | 4.25 |  |  |  |  | 6.74
Cc1cccc(OCc2cncc(C#N)c2)c1C(c1ccc(F)cc1)N1CCN(c2c([N+](=O)[O-])c(=O)n(C)c3ccc(Br)nc23)CC1 (single isomer, unassigned) [Example 90, 5-((2-((4-(6-bromo-1-methyl-3-nitro-2-oxo-1,2-dihydro-1,5-naphthyridin-4-yl)piperazin-1-yl)(4-fluorophenyl)methyl)-3-methylphenoxy)methyl)nicotinonitrile] | 6.20 | 4.82 | < 3.62 | 3.72 | 4.09 |  |  |  | 
Cn1c(=O)c([N+](=O)[O-])c(N2CCN(C(c3ccc(F)cc3)c3ccccc3O)CC2)c2nc(C#N)ccc21 (single isomer, unassigned) [Example 99, 8-(4-((4-fluorophenyl)(2-hydroxyphenyl)methyl)piperazin-1-yl)-5-methyl-7-nitro-6-oxo-5,6-dihydro-1,5-naphthyridine-2-carbonitrile] | 8.03 | 7.40 | 6.14 | 6.17 | 6.39 |  |  |  | 
COc1cc(F)ccc1C(c1ccc(F)cc1)N1CCN(c2c([N+](=O)[O-])c(=O)n(C)c3ccc(C#N)nc23)CC1 (single isomer, unassigned) [Example 125, 8-(4-((4-fluoro-2-methoxyphenyl)(4-fluorophenyl)methyl)piperazin-1-yl)-5-methyl-7-nitro-6-oxo-5,6-dihydro-1,5-naphthyridine-2-carbonitrile] |  |  | 4.96 |  | 5.37 | 7.64 | 5.64 | 5.10 | 
C#CCn1c(=O)c([N+](=O)[O-])c(N2CCN(C(c3ccc(F)cc3)c3ccc(F)cc3OC)CC2)c2nc(C#N)ccc21 (single isomer, unassigned) [Example 127, 8-(4-((4-fluoro-2-methoxyphenyl)(4-fluorophenyl)methyl)piperazin-1-yl)-7-nitro-6-oxo-5-(prop-2-yn-1-yl)-5,6-dihydro-1,5-naphthyridine-2-carbonitrile] | 8.19 | 7.52 | 5.54 | 6.60 | 5.38 |  |  |  | 
